A short description of data set [1]: Animal toxicity: maximum tolerated dose in mice. It is filed as in vivo.
The test system of data set [2] is HT29 MCL. The data set is described as follows: Diffusion in multicellular layers. To be noted: higher than TPZ.
The test system of data set [3] is SiHa xenografts. Put plainly: SiHa xenograft tumor regrowth assay with fractionated radiation. In kind it is in vivo, CD-1 nude mice. The following applies: for Radiation-induced tumor regrowth delay: 30 min before each of 2 Gy × 8.
Data set [4] deals with HT29, SiHa and H460 xenografts. The data set is described as follows: Excision. In kind it is in vivo, CD-1 nude mice. The following applies: three xenograft models, 75% of MTD.
Data set [5] deals with HT29 cells. Put plainly: Oxygen dependence of cytotoxicity and metabolism in stirred cell suspensions. It is filed as cell-based, human. To be noted: mean ± SEM.
The subject of data set [6] is 8 human tumor cell lines. Put plainly: In vitro growth inhibition. It is filed as cell-based. To be noted: 8 cell lines.
For data set [7] the following is noted: cited from earlier work.
Data set [8] is described as follows: Plasma pharmacokinetics in mice. The following applies: male CD-1 nude mice, single i.p. dose at 75% of MTD.
The conditions of data set [9]: cited from earlier work. The source holds these as a separate data set.
For data set [10] the following is noted: mouse, in vivo.
The conditions of data set [11]: cited from earlier work. This is another data set of the same source.
Data set [12] relates to HT29 cells. To be noted: HT29 cell suspensions, mean ± SEM.
A short description of data set [13]: Mouse plasma protein binding. It is filed as in vitro ADME. The following applies: mean ± SEM.
For data set [14] the following is noted: cited from earlier work. The source holds these as a separate data set.
Data set [15] deals with HT29 cells. The data set is described as follows: Clonogenic cell killing in stirred single cell suspensions. To be noted: anoxia, mean ± SEM. It is filed as cell-based, human.
Data set [16] deals with HT29 MCL.
Data set [17] is described as follows: Animal toxicity: maximum tolerated dose in rats. It is filed as in vivo.
The test system of data set [18] is HT29 cells. The following applies: cited from earlier work.
The conditions of data set [19]: mouse; cited from earlier work.

Structures are written as SMILES. Values joined by “and” are separate entries in the source; they are usually repeats but may differ in a detail not shown here. Equal values may be shown once. Read-outs that look alike come from different tables or passages of the source. Marks after values point to notes of the source that are not given here.

As to `[O-][n+]1nc(CCCN2CCOCC2)[n+]([O-])c2cc3c(cc21)CCC3` [SN30000], the “MTD for bi-daily dosing for 4 consecutive days (BID1-4)” value in data set [1] (i.p., 9 am and 3 pm, 4 consecutive days, CD-1 nude mice) was determined as 237 µmol/kg. In [1] (single i.p. administration, male CD-1 nude mice), the “Maximum tolerated dose (MTD)” value worked out at 275 mg/kg. Also, the “MTD (molar dose) relative to TPZ” value in data set [1] (single i.p., male CD-1 nude mice, higher than TPZ) was determined as 4.2 fold. Further, in data set [2], the “DMCL relative to TPZ” value is 3 fold. In data set [3] (176 µmol/kg/dose, p=0.0058 log rank test), the “Radiation-induced tumor regrowth delay” value is “highly significant increases”. The “Activity of drug alone in tumor regrowth assay” value in data set [3] (263 µmol/kg/dose, 8-dose schedule, without radiation) is “not significantly active”. Besides, the “Radiation-induced tumor regrowth delay” value in [3] (263 µmol/kg/dose, p=0.0004 log rank test) is listed as “highly significant increases”. The “Therapeutic gain over TPZ with single dose radiation” value in [4] is recorded as around 3 fold. For the same compound, the “KO2, O2 concentration to halve anoxic cytotoxic potency” value in data set [5] is 1140 ± 240 nM. Besides, the “HCR (aerobic IC50 / anoxic IC50) compared across compounds” value in data set [6] is given as “consistently higher”. Besides, the “Potency under anoxia (hypoxic IC50) compared with TPZ” value in [6] (4 h exposure, anoxia) is on record as “consistently more potent than TPZ”. Moreover, the “Calculated amine pKa” value in data set [7] is listed as 7.1 ^c. In data set [8], the “AUCp∞, area under the plasma (total drug) concentration-time curve extrapolated to infinity in mice” value is 79 µM·h; the “t½, plasma terminal half life in mice” value is 32 min and 32.1 min. Further, in data set [9], the “E(1) One electron reduction potential” value is −399 ± 8 ^c mV and the “One-electron reduction potential difference (higher than TPZ)” value is on record as 57 mV. Besides, the i.p. bioavailability in [10] amounted to 77%. Also, the “Solubility in culture medium at 37°C” value in [11] is listed as 48.5 ^c mM. The “kmet0, first order rate constant for prodrug metabolism under anoxia” value in data set [12] was 1.53 ± 0.21 min^−1 and 1.53 ± 0.21 (8) min^−1. In addition, the “θ, free fraction of drug in plasma in mice” value in [13] turned out to be 83 ± 1%. The “Log P, pH 7.4 (octanol:water partition coefficient)” value in data set [14] is reported as 0.50 ± 0.05 ^c. Moreover, in data set [15], the “γ, proportionality constant in PD model (anoxic clonogenic potency coefficient)” value is recorded as 5.34 ± 0.89 (13) ×10^−5 µM^−2. The “D, diffusion coefficient in HT29 MCLs and tumors” value in [16] is listed as 1.26 ± 0.11 (6) ×10^−6 cm^2s^−1. Besides, the MTD in data set [17] (Sprague-Dawley rats, both sexes, single i.p. dose) is reported as 316 µmol/kg.
In data set [1] (CD-1 nu/nu, mouse, in vivo, ip), `Nc1n[n+]([O-])c2ccccc2[n+]1[O-]` [TPZ, tirapazamine, reference compound] showed an MTD at 4 days of 75 µmol/kg. For the same compound, the MTD at 28 days in data set [1] (male, CD-1 nu/nu, mouse, in vivo, ip) was 178 µmol/kg; in data set [17] (both, Sprague-Dawley, rat, in vivo, ip) it was 178 µmol/kg. For the same compound, the “KO2, O2 concentration to halve anoxic cytotoxic potency” value in data set [18] is 1.21 ± 0.09 ^d µM. For the same compound, the “θ, free fraction of drug in plasma in mice” value in [19] is on record as 100 ± 5.3 ^f %. For the same compound, in [9], the “E(1) One electron reduction potential” value is given as −456 ± 8 ^a mV. In data set [14], the “Log P, pH 7.4 (octanol:water partition coefficient)” value is recorded as −0.34 ± 0.02 ^a. The “γ, proportionality constant in PD model (anoxic clonogenic potency coefficient)” value in data set [15] was 2.41± 0.13 (72) ×10^−5 µM^−2. Also, the “D, diffusion coefficient in HT29 MCLs and tumors” value in [16] (human) was 0.40 ± 0.02 (12) ×10^−6 cm^2s^−1.

As usually defined, the MTD is the largest dose that counted as tolerated. A low value points to poorer tolerability.

The values are drawn from paper PMC3390971 (Clinical Cancer Research, 2010).
